# Where no end group is shown, it is not given here.
# Tested on: hESC-MCs
# Experiment: Activation of MCs: histamine release from hESC-MCs upon stimulation (ELISA histamine kit)
# Type: cell-based, human
# Conditions: hESC (H1)-derived mast cells, 15 min at 37° C., FIG. 13
# Experimental: For stimulation, substance P (Sigma), compound 48/80 or control medium was added to a 25 μl cell suspension (4×10^5 MCs/ml) in 96-well plates, and incubated for further 15 min at 37° C. The reaction was stopped by adding 200 μl ice-cold buffer. The cells were separated by centrifugation at 300×g for 7 min at 4° C., and the supernatant was collected. The cell pellet was resuspended in […] containing 0.5% Triton-X and 0.1% bovine serum albumin (BSA), quick frozen in liquid nitrogen and thawed 4 times. After centrifugation at 12,000×g for 15 min at 4° C., the soluble extract was collected. Histamine levels were measured by an ELISA histamine kit (Beckman Coulter)
substance,measurement,value
"substance P (RPKPQQFFGLM; ends and bridges not checked; UniProt P20366 58-68, looked up) [neuropeptide used as mast cell stimulant (Sigma)]",degranulation to release histamine,dose-dependent degranulation

# — patent publication US8741644B2, “Method for producing mast cells from pluripotent stem cells” (Kyoto University, priority 2009, dated 2014)
